Structures can show the parent of a compound that is named as a salt.
Columns and labels:
[1] = system: HeLa; experiment: Antiproliferative activity against human HeLa cells assessed as reduction in cell viability measured after 72 hrs; type: functional, cell-based
[2] = system: K562; experiment: Antiproliferative activity against human K562 cells assessed as reduction in cell viability measured after 72 hrs; type: functional, cell-based; settings: K562, 72 h
[3] = system: MCF7; experiment: cells; settings: Homo sapiens, MCF7, 72 h
Description: Antiproliferative activity against human MCF7 cells assessed as reduction in cell viability measured after 72 hrs

[4] = system: HCT-116; experiment: cells; settings: Homo sapiens, HCT-116, 72 h
Description: Antiproliferative activity against human HCT-116 cells assessed as reduction in cell viability measured after 72 hrs

[5] = system: MOLM-13; experiment: Antiproliferative activity against human MOLM-13 cells assessed as reduction in cell viability measured after 72 hrs; type: functional, cell-based; settings: MOLM-13, 72 h
[6] = biological target: Tubulin (Homo sapiens) (UniProt P68371+Q9H4B7+P0DPH7+P68366+Q13509+Q71U36+P04350+Q3ZCM7+P07437+P68363+Q9BQE3+Q6PEY2+Q13885+Q9BVA1+Q9BUF5); experiment: Induction of tubulin degradation in human HeLa cells measured after 24 hrs by immunoblot analysis; type: cell-based; settings: dose <= 50.0 µM
[7] = system: NCI/ADR-RES; experiment: Antiproliferative activity against human MCF7ADR cells assessed as reduction in cell viability measured after 72 hrs; type: functional, cell-based

`Nc1nc(NCc2ccc3c(c2)OCO3)cc(-c2ccc(-c3ccccc3)cc2)n1` gave an IC50 [1] greater than 2000 nM, an IC50 [2] greater than 2000 nM and an IC50 [3] greater than 2000 nM. It also gave an IC50 [4] greater than 2000 nM and an IC50 [5] greater than 2000 nM.

Molecule `CCOc1ccc(-c2cc(NCc3ccc4c(c3)OCO4)nc(N)n2)cc1` has an IC50 [1] greater than 2000 nM, an IC50 [2] greater than 2000 nM and an IC50 [3] greater than 2000 nM. The IC50 [4] was greater than 2000 nM and the IC50 [5] was greater than 2000 nM.

Work on `CC(=O)Nc1cccc(-c2cc(NCc3ccc4c(c3)OCO4)nc(N)n2)c1` yielded an IC50 [1] greater than 2000 nM, an IC50 [2] greater than 2000 nM and an IC50 [3] greater than 2000 nM. The IC50 [4] was greater than 2000 nM and the IC50 [5] was greater than 2000 nM.

`CCN(Cc1ccc2c(c1)OCO2)c1cc(-c2cccc(OC)c2)nc(N)n1` showed an IC50 [1] of 20 nM, an IC50 [2] of 40 nM and an IC50 [3] of 60 nM. The IC50 [4] was 60 nM, the IC50 [5] was 30 nM and the Activity [6] was “Dose-Dependent Effect”.

`COc1cccc(-c2cc(NCc3cc(F)cc(F)c3)nc(N)n2)c1` was tested, and the IC50 [1] was 610 nM, the IC50 [2] was 350 nM and the IC50 [3] was 620 nM. For the same molecule, the IC50 [4] was 450 nM and the IC50 [5] was 220 nM.

With `CN(C)c1cccc(-c2cc(NCc3ccc4c(c3)OCO4)nc(N)n2)c1` the IC50 [1] was 280 nM, the IC50 [2] was 300 nM and the IC50 [3] was 530 nM. For the same molecule, the IC50 [4] was 550 nM and the IC50 [5] was 360 nM.

`Nc1nc(NCc2ccc3c(c2)OCO3)cc(-c2ccccc2)n1` was tested, and the IC50 [1] was 460 nM, the IC50 [2] was 140 nM and the IC50 [3] was 1910 nM. The IC50 [4] was 910 nM, the IC50 [5] was 250 nM and the Activity [6] was “Dose-Dependent Effect”.

In the case of `COc1cccc(-c2cc(NCc3cccc(F)c3)nc(N)n2)c1`, the IC50 [1] is reported as 440 nM, the IC50 [2] is reported as 320 nM and the IC50 [3] is reported as 360 nM. The IC50 [4] was 160 nM and the IC50 [5] was 120 nM.

For `N#Cc1cccc(-c2cc(NCc3ccc4c(c3)OCO4)nc(N)n2)c1`, the IC50 [1] was greater than 2000 nM, the IC50 [2] was greater than 2000 nM and the IC50 [3] was greater than 2000 nM. It also gave an IC50 [4] greater than 2000 nM and an IC50 [5] greater than 2000 nM.

`Nc1nc(NCc2ccc3c(c2)OCO3)cc(-c2cccc(-c3ccccc3)c2)n1` showed an IC50 [1] greater than 2000 nM, an IC50 [2] greater than 2000 nM and an IC50 [3] greater than 2000 nM. It also gave an IC50 [4] greater than 2000 nM and an IC50 [5] greater than 2000 nM.

In the case of `COc1ccc(-c2cc(NCc3ccc4c(c3)OCO4)nc(N)n2)cc1OC`, the IC50 [1] is reported as greater than 2000 nM, the IC50 [2] is reported as greater than 2000 nM and the IC50 [3] is reported as greater than 2000 nM. The IC50 [4] was greater than 2000 nM and the IC50 [5] was greater than 2000 nM.

In the case of `COc1cccc(-c2cc(N(C)Cc3ccc4c(c3)OCO4)nc(N)n2)c1`, the IC50 [1] is reported as 20 nM, the IC50 [2] is reported as 40 nM and the IC50 [3] is reported as 120 nM. For the same molecule, the IC50 [4] was 35 nM and the IC50 [5] was 30 nM.

With `COc1cccc(-c2cc(NCc3ccc(F)cc3F)nc(N)n2)c1` the IC50 [1] was 360 nM, the IC50 [2] was 120 nM and the IC50 [3] was 540 nM. It also gave an IC50 [4] of 180 nM and an IC50 [5] of 130 nM.

`COc1cccc(-c2cc(NCc3ccccc3)nc(N)n2)c1` showed an IC50 [1] of 440 nM, an IC50 [2] of 270 nM and an IC50 [3] of 850 nM. For the same molecule, the IC50 [4] was 920 nM, the IC50 [5] was 360 nM and the Activity [6] was “Dose-Dependent Effect”.

`Nc1nc(NCc2ccc3c(c2)OCO3)cc(-c2ccc3ccccc3c2)n1` gave an IC50 [1] greater than 2000 nM, an IC50 [2] of 1820 nM and an IC50 [3] greater than 2000 nM. It also gave an IC50 [4] of 1670 nM and an IC50 [5] greater than 2000 nM.

`COc1cc(OC)cc(-c2cc(NCc3ccc4c(c3)OCO4)nc(N)n2)c1` gave an IC50 [1] of 180 nM, an IC50 [2] of 60 nM and an IC50 [3] of 350 nM. For the same molecule, the IC50 [4] was 330 nM and the IC50 [5] was 60 nM.

In the case of `COc1ccc(-c2cc(NCc3ccc4c(c3)OCO4)nc(N)n2)cn1`, the IC50 [1] is reported as 200 nM, the IC50 [2] is reported as 120 nM and the IC50 [3] is reported as 1250 nM. It also gave an IC50 [4] of 820 nM and an IC50 [5] of 190 nM.

`CC(=O)c1cccc(-c2cc(NCc3ccc4c(c3)OCO4)nc(N)n2)c1` gave an IC50 [1] greater than 2000 nM, an IC50 [2] greater than 2000 nM and an IC50 [3] greater than 2000 nM. It also gave an IC50 [4] greater than 2000 nM and an IC50 [5] greater than 2000 nM.

Molecule `CC1(C)c2ccccc2-c2ccc(-c3cc(NCc4ccc5c(c4)OCO5)nc(N)n3)cc21` has an IC50 [1] greater than 2000 nM, an IC50 [2] greater than 2000 nM and an IC50 [3] greater than 2000 nM. The IC50 [4] was greater than 2000 nM and the IC50 [5] was greater than 2000 nM.

`Nc1nc(NCc2ccc3c(c2)OCO3)cc(-c2ccc3c(c2)OCO3)n1` was tested, and the IC50 [1] was 180 nM, the IC50 [2] was 70 nM and the IC50 [3] was 1210 nM. For the same molecule, the IC50 [4] was 390 nM and the IC50 [5] was 110 nM.

In the case of `Nc1nc(NCc2ccc3c(c2)OCO3)cc(-c2ccncc2)n1`, the IC50 [1] is reported as greater than 2000 nM, the IC50 [2] is reported as greater than 2000 nM and the IC50 [3] is reported as greater than 2000 nM. It also gave an IC50 [4] greater than 2000 nM and an IC50 [5] greater than 2000 nM.

Molecule `Cn1cc2c(-c3cc(NCc4ccc5c(c4)OCO5)nc(N)n3)cccc2n1` has an IC50 [1] greater than 2000 nM, an IC50 [2] greater than 2000 nM and an IC50 [3] greater than 2000 nM. The IC50 [4] was greater than 2000 nM and the IC50 [5] was greater than 2000 nM.

Molecule `COc1cccc2c1C(=O)c1c(O)c3c(c(O)c1C2=O)C[C@@](O)(C(=O)CO)C[C@@H]3O[C@H]1C[C@H](N)[C@H](O)[C@H](C)O1` [DOXORUBICIN HYDROCHLORIDE] has an IC50 [7] of 8630 nM.
